Assay results: PMC4552745, “Novel Gallate Triphenylphosphonium Derivatives with Potent Antichagasic Activity” (PLoS ONE, 2015)

What was measured:
[1] = tested on: VERO cells; test: MTT reduction viability assay on VERO cells; type: cell-based; conditions: Chlorocebus sabaeus, 24 hours exposure, mean ± SD
Procedure: The effect of the drugs on parasite viability was evaluated using the tetrazolium salt (MTT) reduction assay. […] Alternatively, VERO cells attached to the surface of 96-well plates were washed and incubated with MTT (5 mg/mL). After incubation for 4 h at 37°C, the generated formazan crystals were dissolved with 100 μL of 10% (w/v) sodium dodecyl sulfate (SDS) in 0.01 M HCl. The plates were then incubated overnight at 37°C, and the optical density (OD) was determined using a microplate reader (Labsystems Multiskan MS, Finland) at 570 nm. Under these conditions, the OD is directly proportional to the number of viable cells in each well [33, 34]. All of the experiments were performed at least three times. […] The data from each experiment were plotted using the formazan absorbance versus the log of the concentration, and the plot was fitted to the dose-response (four-parameters) equation using the software Graph Pad Prism V5.0, obtaining the EC50 value per drug and per experiment. The data are expressed as the mean ± DS of the EC50s obtained from each experiment.

[2] = tested on: T. cruzi trypomastigotes (Y strain); type: cell-based; conditions: for markers of cell death (phosphatidylserine exposure and propidium iodide permeabilization): 1 μM, 24 hours; for number of viable cells (without annexin-V or PI positivity): 24 hours, 0.1, 0.5 or 1 μM, Fig 2B
Procedure: For these assays, 10^7 trypomastigotes (Y strain) were exposed to […] for 24 h in RPMI at 37°C and 5% CO2. The cells were then washed in phosphate-buffered saline (PBS), resuspended, and incubated with propidium iodide (PI) and Annexin-V labeled with Alexa Fluor 488. The incubation was performed using Alexa Fluor 488 Annexin V/Dead Cell Apoptosis Kit (Molecular Probes, USA) following the manufacturer’s instructions. The fluorescence of the samples was measured using a FACSAria-III flow cytometer (BD biosciences, USA) with 530/30 and 630/22 filters to detect Annexin-V and PI, respectively. For each sample, 5,000 events were recorded, and the data were analyzed using FACSDiva 6.1 software.

[3] = tested on: T. cruzi intracellular amastigotes in VERO cells; test: DAPI staining and intracellular amastigote quantification in infected VERO cells; type: cell-based, Trypanosoma cruzi; conditions: 1 μM, 48 hours, control 12.9 ± 2.2
Procedure: VERO (Chlorocebus sabaeus kidney fibroblasts, ATCC number: CCL-81) cells were exposed to T. cruzi trypomastigotes (Y strain) at a 5:1 ratio (trypomastigotes:cells) for 24 hours. The cells were then washed and treated with different compounds, at 0.1 and 1 μM, for 48 hours. The cells were washed and fixed in cold methanol (70%) overnight; the fixed cells were washed, and 1 mL of PBS (pH 7.4) was added. The DNA was stained with DAPI (NucBlue, Molecular Probes, USA) following the manufacturer’s instructions. The cells were photographed using a Nikon Eclipse 400 fluorescence microscope at 358 nm (excitation) and 461 nm (emission). Five images were obtained per well, and each picture was analyzed by two independent researchers.

[4] = tested on: T. cruzi in infected RAW 264.7 cells; test: Parasite DNA load by real-time PCR in infected RAW cells; type: cell-based, Trypanosoma cruzi; conditions: for parasite's DNA load: 1 μM, qPCR, 48 hours; for parasite load (qPCR): infected RAW cells, 48 hours after treatment, Fig 4
Source text: DNA from infected RAW cells (murine macrophages, ATCC number: TIB-71) was isolated using Wizard Genomic DNA Purification Kit (Promega, USA) following the manufacturer’s instructions. DNA was quantified through […] absorbance measurements using a Varioskan spectrophotometer (Thermo Scientific, USA). To evaluate the parasite DNA load, we used a TaqMan-Duplex system, as described previously. To amplify an 84-bp T. cruzi satellite DNA sequence, we used the following primers: TcSt 4-Fw (5’-[…]-3’) and TcSt 1-Rev (5’-[…]-3’) and the TcSt-1 probe (5’-FAM-[…]-BHQ-1-3’). As an endogenous control, we used the Mus-F (5’-[…]-3’) and Mus-R (5’-[…]-3’) primers coupled with the MM-1 probe (5’-HEX-AAAGCATCTGCCTCCG-BHQ-1-3’) to amplify a 67-bp Mus musculus GAPDH sequence. The primers and probes were designed using Primer Express 3.0 Software (Applied Biosystems, USA) and manufactured by Integrated DNA Technologies (Coralville, IA, USA). The PCR reactions were performed using an ABI7300 real-time thermocycler (Applied Biosystems, USA). […] ROX was used as a reference dye. For both TaqMan assays, the thermal cycle consisted of a polymerase activation step carried out at 95°C for 10 min (one cycle) and a two-step amplification phase: 95°C for 15 s and 55°C for 45 s (40 cycles). Fluorescence was measured at the end of each amplification cycle. The data were analyzed using 7300 System SDS software with the SDS relative quantitation plug-in (Applied Biosystems, USA). All of the data were analyzed by the 2^-∆∆CT method, comparing the CTs of the T. cruzi gene versus that of GAPDH as well as comparing all of the samples with the controls. The parasite load is expressed as the relative DNA load compared with the controls.

[5] = tested on: T. cruzi trypomastigotes (Y strain) mitochondrial permeability transition pore; test: Mitochondrial permeability transition pore opening (calcein AM / CoCl2); type: cell-based, Trypanosoma cruzi; conditions: 1 hour, Fig 6B
Procedure: The opening of mitochondrial permeability transition pores was assessed using the calcein AM probe, adapting the method described by Huang et al (2014). Calcein-AM is a lipophilic probe that can enter the cell, including the mitochondria, and is then cleaved by cellular esterases, releasing the fluorescent probe calcein. T. cruzi trypomastigotes (Y strain, 5 x 10^6 parasites/mL) were stained with 100 nM calcein AM (Molecular Probes, Applied Biosytems, USA) and incubated at 37°C for 15 min in the presence of […] of CoCl2 to quench the cytosolic fluorescence of calcein. Then, the parasites were washed with PBS and resuspended in RPMI medium, without phenol red, supplemented with 0.3 mM of Ca^+2. The parasites were then seeded in 24-well plates and exposed to the different compounds (TPP^+-C8, TPP^+-C10, TPP^+-C11, and TPP^+-C12) at 1 or 5 μM for 1 hour. As a positive control, one group was exposed to ionomycin (0.5 μM). The samples were measured using a FACS Aria III flow cytometer (BD Biosciences, USA) with the 494/517 filter to detect calcein fluorescence. For every measurement, 5,000 events were recorded. The raw flow cytometry data were analyzed using FACSDiva 6.1 software (BD Biosciences). The results were analyzed using the median fluorescence intensity (MFI) from the frequency histograms. Thus, we used the median intensity of the control group (parasites incubated with calcein AM and CoCl2) to establish 100% of mitochondrial fluorescence, thereby establishing percent ratios between the treatment groups and the control.

| SMILES | EC50 [1] [µM] | markers of cell death (phosphatidylserine exposure and propidium iodide permeabilization) [2] | number of viable cells (without annexin-V or PI positivity) [2] | number of amastigotes per infected cell [3] | parasite's DNA load [4] | parasite load (qPCR) [4] | mitochondrial calcein fluorescence (median fluorescence intensity) ([5]; 5 μM) | mitochondrial calcein fluorescence (median fluorescence intensity) ([5]; 1 μM) |
| --- | --- | --- | --- | --- | --- | --- | --- | --- |
| O=C(OCCCCCCCCCC[P+](c1ccccc1)(c1ccccc1)c1ccccc1)c1cc(O)c(O)c(O)c1.[Br-] [TPP^+-C10, triphenyl(10-((3,4,5-trihydroxybenzoyl)oxy)-decyl) phosphonium bromide] | 11.3 ± 0.1 | induced markers of cell death | significant decrease in the number of viable cells at concentrations of 0.5 and 1 μM | 2.5 ± 1.1 | 10 % of control measurements | reduced the parasite load in a concentration-dependent manner | 22 % of the control |  |
| O=C(OCCCCCCCCCCCC[P+](c1ccccc1)(c1ccccc1)c1ccccc1)c1cc(O)c(O)c(O)c1.[Br-] [TPP^+-C12, triphenyl(12-((3,4,5-trihydroxybenzoyl)oxy)-dodecyl) phosphonium bromide] | 10.9 ± 2.4 | induced markers of cell death | significant decrease in the number of viable cells at concentrations of 0.5 and 1 μM | 2.0 ± 0.7 | 13 % of control measurements | reduced the parasite load in a concentration-dependent manner | 20 % of the control | 29 % of the control |
